Measured values taken from patent publication US20140121235A1, “Method for Treating S6K-Overexpressing Cancers” (Rush University Medical Center, priority 2012, published 2014).

Assays:
Raf-1 phosphorylation = assay: Western blot of Raf-1 phosphorylation in A375 cells; assay type: cell-based
Protocol: (§1) A375 cells seeded in a 6-well plate were starved in DMEM medium containing 0.5% FBS for 2 hr and treated with the indicated concentration of A77 1726 or PLX 4720 (1 μM) for another 2 hr (A) or treated with A77 1726 (100 μM) for the indicated time (B & C). Cells were harvested and analyzed for protein phosphorylation by specific antibodies as indicated. Protein loading was monitored by stripping membrane and re-probing with antibodies against non-phosphorylated proteins. (D) Uridine fails to reverse the effect of A77 1726 on the PI-3 and MAP kinase pathways. A375 cells seeded in a 6-well plate were starved in DMEM medium containing 05% FBS for 2 hr and treated with the indicated concentration of A77 1726 in the absence or presence of uridine (200 μM). Phosphorylated and total proteins were analyzed by Western blot as described above.
Cells grown in 6-well plates were harvested and lysed in NP-40 lysis buffer (50 mM Tris-HCI (pH 8.0), 150 mM NaCl, 1% NP-40, 5 mM EDTA, 10 μg/ml aprotinin, 10 μg/ml leupeptin, and 1 mM phenylmethylsulfonyl fluoride). After incubation on ice for 30 min, the cell lysates were prepared by spinning down at 4° C., 15,000 rpm for 15 min. […]

[1] = test system: ribosomal protein S6^S235/S236 phosphorylation; assay: Western blot of S6 phosphorylation in A375 cells; assay type: cell-based; conditions: Homo sapiens, A-375; read-out: IC50 to inhibit S6 phosphorylation in cell culture
Protocol: as §1, with “(D) Uridine fails to reverse the effect of A77 1726 on the PI-3 and MAP kinase pathways.” left out
(§2) A375 cells seeded in 6-well plates were starved in DMEM medium containing 0.5% FBS for 2 hr and then pre-treated with vehicle (0.1% dimethyl sulfoxide), LY294002 (10 μM) (A), PPP (1 μM) (B), or the inhibitors of the MAP kinase pathway (PLX4720, 1 μM; U0126, 10 μM; PD98059, 10 μM) (C) for 1 hr. Cells were then treated with A77 1726 (100 μM) or rapamycin (20 nM) as indicated for 2 hr. Cells were harvested and analyzed for protein phosphorylation by specific antibodies as indicated. Protein loading was monitored by stripping membrane and re-probing with antibodies against non-phosphorylated proteins.
(§3) Cells grown in 6-well plates were harvested and lysed in NP-40 lysis buffer (50 mM Tris-HCI (pH 8.0), 150 mM NaCl, 1% NP-40, 5 mM EDTA, 10 μg/ml aprotinin, 10 μg/ml leupeptin, and 1 mM phenylmethylsulfonyl fluoride). After incubation on ice for 30 min, the cell lysates were prepared by spinning down at 4° C., 15,000 rpm for 15 min. After electrophoresis and transfer to Immobolin membrane, proteins of interest were probed with their specific antibodies, followed by horseradish peroxidase-conjugated goat anti-rabbit IgG and SuperSignal Western Pico enhanced chemiluminoscence substrate (Pierce Chemical Co., Rockford, Ill.).
(§4) The PI-3 and MAP kinase pathways play an important role in cell proliferation, differentiation, and cell cycle progress. Multiple genes in these two pathways are frequently mutated and have a commanding role in driving tumorigenesis and tumor cell proliferation (2; 3). […] Here we tested whether A77 1726 affected the activation of MAP and PI-3 kinase pathways. A375 cells grown in 6-well plates were starved in the media containing 0.5% FBS for 2 hr and then treated with the indicated concentration of A77 1726. […] We next explored the effect of A77 1726 in phosphorylation of the molecules in the PI-3 kinase pathway.

[2] = test system: ERK1/2^T202/Y204 and MEK1/2^S217/S221 phosphorylation; assay: Western blot of MAP kinase pathway phosphorylation in A375 cells; assay type: cell-based
Protocol: as §1, with “(D) Uridine fails to reverse the effect of A77 1726 on the PI-3 and MAP kinase pathways.” left out
as §2, §3, §4

[3] = target: recombinant p70 S6 kinase (S6K1) (Homo sapiens, UniProt P23443); assay: In vitro p70 S6 kinase assay (ADP-Glo Kinase assay system); assay type: biochemical; conditions: 30 min pre-incubation, ATP 10 μM, 1 hr, read-out: IC50, inhibition of recombinant S6K1 activity
Chain of recombinant p70 S6 kinase (S6K1) (P23443 whole entry): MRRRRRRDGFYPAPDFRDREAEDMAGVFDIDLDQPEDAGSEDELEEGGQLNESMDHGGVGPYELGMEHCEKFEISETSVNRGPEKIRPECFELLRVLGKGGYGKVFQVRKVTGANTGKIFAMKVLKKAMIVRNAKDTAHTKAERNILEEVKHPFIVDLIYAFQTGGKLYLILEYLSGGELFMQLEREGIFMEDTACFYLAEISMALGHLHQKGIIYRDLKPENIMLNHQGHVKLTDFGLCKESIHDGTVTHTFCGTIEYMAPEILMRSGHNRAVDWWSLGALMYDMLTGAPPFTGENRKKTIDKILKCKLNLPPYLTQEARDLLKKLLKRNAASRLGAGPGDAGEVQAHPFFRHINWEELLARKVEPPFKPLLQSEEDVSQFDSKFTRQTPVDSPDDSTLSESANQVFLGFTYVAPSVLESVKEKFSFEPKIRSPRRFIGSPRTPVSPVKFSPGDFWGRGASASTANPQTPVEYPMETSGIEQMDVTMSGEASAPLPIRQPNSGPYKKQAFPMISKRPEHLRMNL
Protocol: Leflunomide and A77 1726 diluted at the final concentrations as indicated were pre-mixed with S6K1 for 30 min, followed by the addition of peptide substrate of S6K1 and incubation for 1 hr. S6K1 activity was measured by using a ADP-Glo™ system. The experiment was repeated with similar results. The data represents the mean±standard deviation from one experiment in triplicate.
The ability of lefiunomide and A77 1726 to inhibit p70 S6 kinase assay was conducted by using an ADP-Glo™ Kinase assay system (Promega Corporation, Madison, Wis.). Briefly, A77 1726 or leflunomide diluted in the kinase buffer was mixed with recombinant p70 S6 kinase (100 ng/reaction) and incubated at room temperature for 30 min. Peptide substrate of p70 S6 kinase (5 μg/reaction) and ATP (10 μM, final concentration) was added, with a total final volume of 25 μl. After incubation for 1 hr, ADP-Glo™ reagent (25 μl) was added to each reaction. After incubation for 40 min, kinase detection substrate (luciferin) (50 μl/reaction) was added. After incubation fix 30 min, luciferase activity was measured by reading in a luminescence plate reader. The experiment was conducted in triplicate and repeated once with similar results. The data from one experiment were presented as mean±standard deviation.

- IC50 [1]: 50 to 75 µM
- IC50 [3]: ~55 µM
Compound: Cc1oncc1C(=O)Nc1ccc(C(F)(F)F)cc1 [leflunomide]
- effect on Raf-1 phosphorylation (Raf-1 phosphorylation): no increased Raf-1 phosphorylation
- effect on ERK1/2 and MEK phosphorylation ([2]; A375 cells starved in 0.5% FBS, A77 1726 or leflunomide at indicated concentrations, 2 hr): rapidly and potently induced
- potency in inducing feedback activation of the MAP kinase pathway ([2]; A375 cells, compared with A77 1726): slightly more potent than A77 1726
